Consider 22 compounds from patent EP0185130A1, “5-Alkoxy-2,4,6-triodo or tribromo-isophthalic-acid derivatives, process for their preparation and X-ray contrast agents containing them” (BRACCO INDUSTRIA CHIMICA Società per Azioni, priority 1984, dated 1986).

A short description of data set [1]: Water solubility. The data set is classed as physicochemical. The note with it: for solubility: water, read-out: Wasserlöslichkeit.
Data set [2] can be described thus: Heat sterilisation of aqueous injection solutions (stability). The data set is classed as physicochemical. To be noted: 120 °C for 30 minutes. An excerpt: Beispielsweise werden die nach den vorstehenden Beispielen erhaltenen reinen 5-Alkoxy-2,4,6-trijodisopthalsäurediamide unter sterilen Bedingungen in der gewünschten Menge bidestilliertem Wasser gelöst, filtriert, unter Zusatz von geringen Mengen EDTA-Na2 und Puffersubstanzen auf pH 6,9 bis 7,1 eingestellt, in Serumflaschen oder Ampullen abgefüllt und anschliessend sterilisiert.

Setting [3] is: result in words, no temperature stated.

≈ marks a conversion by molar mass, not a printed value. Where two headings read alike, the source gives them in different places.

For `O=C(NC(CO)CO)c1c(I)c(OCCOCCOCCO)c(I)c(C(=O)NC(CO)CO)c1I` [Beispiel 5], in data set [1] (bei Raumtemperatur), the solubility was above 1000 mg/mL. Besides, the “sterilisieren durch Erhitzen” value in data set [2] was “ohne Schwierigkeiten”. On to `COCCOCCOCCOCCOCCOc1c(I)c(C(=O)NC(CO)CO)c(I)c(C(=O)NC(CO)CO)c1I` [Beispiel 3, 5-(3,6,9,12,15-Pentaoxahexadecyl)oxy-2,4,6-trijod-isophthalsäure-bis-(1,3-dihydroxyisopropylamid)], for which, in data set [1] (bei Raumtemperatur), the solubility was above 1000 mg/mL. The “sterilisieren durch Erhitzen” value in data set [2] was “ohne Schwierigkeiten”. “5-(3,6,9-Triuxadecyl)oxy-2,4,6-trijodisophthalsäure-bis(1,3-dihydroxy- isopropylamid) [Beispiel 2]”: the Wasserlöslichkeit in data set [1] (bei Raumtemperatur) is reported as > 100 % (g/v). In addition, the “sterilisieren durch Erhitzen” value in data set [2] is “ohne Schwierigkeiten”. Turning to `COCCOCCOCCOCCOCCOCCOCCOc1c(I)c(C(=O)NC(CO)CO)c(I)c(C(=O)NC(CO)CO)c1I` [Beispiel 4, 5-(3,6,9,12,15,18,21-Heptaoxadocosyl)oxy-2,4,6-trijodisophthalsäure-bis(1,3-dihydroxyisopropylamid)], in data set [1] (bei 20 °C), the solubility is above 1000 mg/mL. Further, the “sterilisieren durch Erhitzen” value in data set [2] was “ohne Schwierigkeiten”.

Regarding `O=C(NC(CO)CO)c1c(I)c(OCCOCCOCCOc2c(I)c(C(=O)NC(CO)CO)c(I)c(C(=O)NC(CO)CO)c2I)c(I)c(C(=O)NC(CO)CO)c1I` [Beispiel 43, 1,8-Bis-(3,5-bis(1,3-dihydroxyisopropylaminocarbonyl)-2,4,6-trijod-phenoxy)-3,6-dioxaoctan], the Wasserlöslichkeit entry in data set [1] (setting [3]) is “Wenig löslich in Wasser”.

For the compound `C[C@@H](Oc1c(I)c(C(=O)NC(CO)CO)c(I)c(C(=O)NC(CO)CO)c1I)C(=O)N(C)C[C@H](O)[C@@H](O)[C@H](O)[C@H](O)CO` [Beispiel 28 R], the solubility in data set [1] (bei 25 °C) was above 1000 mg/mL.

As to `CCOCCOCCOc1c(I)c(C(=O)N(C)CC(O)CO)c(I)c(C(=O)N(C)CC(O)CO)c1I` (stereo not drawn) [Beispiel 40, 5-(3,6-Dioxaoctyl)oxy-2,4,6-trijodisophthalsäure-bis(N-methyl-N-2,3-dihydroxypropylamid)], the solubility in data set [1] (bei 25 °C) is above 600 mg/mL.

Take `O=C(NCC(O)CO)c1c(I)c(OCCOCCOCCOCCOCCOc2c(I)c(C(=O)NCC(O)CO)c(I)c(C(=O)NC(CO)CO)c2I)c(I)c(C(=O)NC(CO)CO)c1I` (stereo not drawn) [Beispiel 45, 1,14-Bis-(3-(1,3-dihydroxyisopropylaminocarbonyl)-5-(2,3-dihydroxy-propylaminocarbonyl)-2,4,6-trijodphenoxy)-3,6,9,12-tetraoxatetradecan]: in data set [1] (setting [3]), the Wasserlöslichkeit result is listed as “gut wasserlöslich”.

As to `O=C(COc1c(I)c(C(=O)NC(CO)CO)c(I)c(C(=O)NC(CO)CO)c1I)NCC(O)CO` (stereo not drawn) [Beispiel 49, 5-(2,3-Dihydroxypropylaminocarbonyl)methoxy-2,4,6-trijodisophthalsäure-bis(1,3-dihydroxyisopropylamid)], the Wasserlöslichkeit entry in data set [1] (setting [3]) is listed as “leicht löslich in Wasser”. For the compound `CN(CC(O)CO)C(=O)COc1c(I)c(C(=O)NCC(O)CO)c(I)c(C(=O)NCC(O)CO)c1I` (stereo not drawn) [Beispiel 34, 5-(N-Methyl-N-2,3-dihydroxypropyl)aminocarbonylmethoxy-2,4,6-trijod-isophthalsäure-bis(2,3-dihydroxypropylamid)], the solubility in data set [1] (bei 25 °C) is above 1000 mg/mL. For the compound `O=C(COc1c(I)c(C(=O)NC(CO)CO)c(I)c(C(=O)NC(CO)CO)c1I)NCC(O)C(O)CNC(=O)COc1c(I)c(C(=O)NC(CO)CO)c(I)c(C(=O)NC(CO)CO)c1I` (stereo not drawn) [Beispiel 47, 1,4-Bis-(3,5-bis(1,3-dihydroxyisopropylaminocarbonyl)-2,4,6-trijod-phenoxy-acetylamino)-2,3-dihydroxybutan], the Wasserlöslichkeit entry in data set [1] (setting [3]) is on record as “wasserlöslich”. For the compound `O=C(NC(CO)CO)c1c(I)c(OCC(=O)N(CCO)CCO)c(I)c(C(=O)NC(CO)CO)c1I` [Beispiel 17], in data set [1] (bei 25 °C), the solubility was above 1000 mg/mL.

As to `CCOCCOCCOc1c(I)c(C(=O)NCC(O)CO)c(I)c(C(=O)NC(CO)CO)c1I` (stereo not drawn) [Beispiel 42, 1-(3-(1,3-Dihydroxyisopropylaminocarbonyl)-5-(2,3-dihydroxypropylamino-carbonyl)-2,4,6-trijod-phenoxy)-3,6-dioxaoctan], the solubility in data set [1] (no temperature stated) was above 500 mg/mL.

`O=C(COc1c(I)c(C(=O)NCC(O)CO)c(I)c(C(=O)NCC(O)CO)c1I)NCCO` (stereo not drawn) [Beispiel 31, 5-(2-Hydroxyethylaminocarbonylmethoxy)-2,4,6-trijodisophthalsäure-bis(2,3-dihydroxypropylamid)]: the values for the solubility in data set [1] (bei 25 °C) and in data set [1] (bei Siedetemperatur) were 12 mg/mL (≈ 14.9 mM) and 130 mg/mL (≈ 161 mM), respectively. For `CN(C[C@H](O)[C@H](O)CO)C(=O)COc1c(I)c(C(=O)NC(CO)CO)c(I)c(C(=O)NC(CO)CO)c1I` [Beispiel 21, 5-(N-Methyl-N-2,3,4-trihydroxybutyl)aminocarbonylmethoxy-2,4,6-trijod-isophthalsäure-bis(1,3-dihydroxyisopropylamid)], the solubility in data set [1] (bei 20 °C) is above 1000 mg/mL. On to `CN(CC(O)CO)C(=O)COc1c(I)c(C(=O)NC(CO)CO)c(I)c(C(=O)NC(CO)CO)c1I` (stereo not drawn) [Beispiel 19, 5-(N-Methyl-N-2,3-dihydroxypropyl)aminocarbonylmethoxy-2,4,6-trijodiso-phthalsäure-bis-(1,3-dihydroxyisopropylamid)], for which the solubility in data set [1] (bei 20 °C) was above 1000 mg/mL. For `CC(Oc1c(I)c(C(=O)NC(CO)CO)c(I)c(C(=O)NC(CO)CO)c1I)C(=O)N(C)CC(O)C(O)CO` (stereo not drawn) [Beispiel 22, (5-(1(N-Methyl-N-2,3,4-trihydroxybutyl)aminocarbonyl)ethoxy)-2,4,6-trijodisophthalsäure-bis(1,3-dihydroxyisopropylamid)], the Wasserlöslichkeit in data set [1] (bei 25 °C) is > 100 % (g/v).

For the compound `C[C@@H](Oc1c(I)c(C(=O)NC(CO)CO)c(I)c(C(=O)NC(CO)CO)c1I)C(=O)NC(CO)(CO)CO` [Beispiel 16, R(-)-5(1(1,3-Dihydroxy-2-hydroxymethyl-isopropylaminocarbonyl)ethoxy)-2,4,6-trijodisophthalsäure-bis(1,3-dihydroxyisopropylamid)], the solubility came out at 25 mg/mL (≈ 28.4 mM) in data set [1] (bei 25 °C) and 1000 mg/mL (≈ 1130 mM) in data set [1] (bei 100 °C).

Turning to `CC(Oc1c(I)c(C(=O)NC(CO)CO)c(I)c(C(=O)NC(CO)CO)c1I)C(=O)N(C)C[C@H](O)[C@@H](O)[C@H](O)[C@H](O)CO` (stereo partly drawn) [Beispiel 28 R,S], in data set [1] (bei 25 °C), the solubility was above 1000 mg/mL. As to “5-(3,6,9-Trioxadecyl)oxy-2,4,6-tribromisophthalsäure-bis(1,3-dihydroxy- isopropylamid) [Beispiel 7]”, the Wasserlöslichkeit in data set [1] (bei 20 °C) is reported as > 100 % (g/v). In addition, the “sterilisieren durch Erhitzen” value in data set [2] is on record as “ohne Schwierigkeiten”. For `CN(C[C@H](O)[C@@H](O)[C@H](O)[C@H](O)CO)C(=O)COc1c(Br)c(C(=O)NC(CO)CO)c(Br)c(C(=O)NC(CO)CO)c1Br` [Beispiel 29, 5(N-Methyl-N-2,3,4,5,6-pentahydroxyhexyl)aminocarbonylmethoxy-2,4,6-tribromisophthalsäure-bis(1,3-dihydroxyisopropylamid)], the solubility in data set [1] (bei 20 °C) was above 1000 mg/mL. Take `CCOCCOCCOc1c(I)c(C(=O)NC(CO)CO)c(I)c(C(=O)NC(CO)CO)c1I` [Beispiel 1, 5-(3,6-Dioxaoctyl)oxy-2,4,6-trijodisophthalsäure-bis(1,3-dihydroxyiso-propylamid)]: the solubility in data set [1] (bei 20 °C) worked out at 60 mg/mL (≈ 73 mM); in data set [1] (bei Siedetemperatur), 1000 mg/mL (≈ 1220 mM).
